Assay results from patent US20010031760A1, “Method of treating a patient having precancerous lesions with quinazoline derivatives” (priority 1995, published 2001).
Where a name gives a salt, the structure may show the parent alone.

melting point	Structure (SMILES)
291 to 294 °C (dec.)	COc1cc2nc(N3CCN(C(=O)c4cocn4)CC3)nc(N)c2cc1OC.Cl
278 to 280 °C (dec.)	COc1cc2nc(N3CCN(C(=O)c4coc(C)n4)CC3)nc(N)c2cc1OC.Cl
283.5 to 288 °C (dec.)	COc1cc2nc(N3CCN(C(=O)c4ocnc4C)CC3)nc(N)c2cc1OC.Cl
286 to 287 °C (dec.)	COc1cc2nc(N3CCN(C(=O)c4cnsc4)CC3)nc(N)c2cc1OC.Cl
273 to 276 °C (dec.)	COc1cc2nc(N3CCN(C(=O)c4nccs4)CC3)nc(N)c2cc1OC.Cl
274 to 277 °C (dec.)	COc1cc2nc(N3CCN(C(=O)c4cscn4)CC3)nc(N)c2cc1OC.Cl
260 to 263 °C (dec.)	COc1cc2nc(N3CCN(C(=O)c4csc(C)n4)CC3)nc(N)c2cc1OC.Cl
280 to 281 °C (dec.)	COc1cc2nc(N3CCN(C(=O)c4cncs4)CC3)nc(N)c2cc1OC.Cl
282 to 284 °C	COc1cc2nc(N3CCN(C(=O)C4CCCC4)CC3)nc(NN)c2cc1OC.Cl
270 °C (dec.)	COc1cc2nc(N3CCN(C(=O)c4csnn4)CC3)nc(N)c2cc1OC.Cl
295 to 297 °C	COc1cc2nc(N3CCN(C(=O)c4cnns4)CC3)nc(N)c2cc1OC.Cl
268 to 273 °C (dec.)	COc1cc2nc(N3CCN(C(=O)c4ccon4)CC3)nc(N)c2cc1OC.Cl
225 to 260 °C (dec.)	COc1cc2nc(N3CCN(C(=O)c4cnoc4)CC3)nc(N)c2cc1OC.Cl
271 to 273 °C (dec.)	COc1cc2nc(N3CCN(C(=O)c4cc(C)on4)CC3)nc(N)c2cc1OC.Cl
300 to 301 °C (dec.)	COc1cc2nc(N3CCN(C(=O)c4conc4C)CC3)nc(N)c2cc1OC.Cl
263 to 264 °C (dec.)	COc1cc2nc(N3CCN(C(=O)c4cc(C)no4)CC3)nc(N)c2cc1OC.Cl
279 to 280 °C (dec.)	COc1cc2nc(N3CCN(C(=O)C4CCCC4)CC3)nc(N)c2cc1OC (as salt: hydrochloride) [Example 127, 4-Amino-2-[4-(cyclopentylcarbonyl)-1-piperazinyl]-6,7-dimethoxyquinazoline]
234 to 236 °C	COc1cc2nc(N3CCN(C(=O)C4CC=CCC4)CC3)nc(N)c2cc1OC (stereo not drawn) [Example 132, 4-Amino-2-[4-(3-cyclohexenylcarbonyl)-1-piperazinyl]-6,7-dimethoxyquinazoline]
